Laboratory results as given in the supplement of paper PMC10307832.

Key:
Assay in all cases: relative viability (nuclei count vs DMSO), 5 days (fraction); higher = more cells survive
NCI-H3122 = system: NCI-H3122
Method in brief: (§1)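 Lung cancer cell lines were seeded in 1536-well plates and dosed by pin tool the next day, with either a single drug or a fixed anchor-drug dose combined with five library-drug doses (not always all listed) spaced in √10 steps. Five days later, one step fixed the cells and stained their nuclei (final 0.05% Triton X-100, 1% formaldehyde, 1 ug/ml Hoechst), and nuclei were counted on 4× images. Relative viability is the nuclei count in treated wells divided by the count in vehicle wells, and each value is the median of duplicate plates.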

HCC-827 = system: HCC-827
Method in brief: as §1

NCI-H1734 = system: NCI-H1734
Method in brief: as §1

NCI-H1944 = system: NCI-H1944
Method in brief: as §1

HCC-15 = system: HCC-15
Method in brief: as §1

NCI-H2023 = system: NCI-H2023
Method in brief: as §1

ABC-1 = system: ABC-1
Method in brief: as §1

NCI-H2228 = system: NCI-H2228
Method in brief: as §1

HCC-44 = system: HCC-44
Method in brief: as §1

ChaGo-K-1 = system: ChaGo-K-1
Method in brief: as §1

SW 1573 = system: SW 1573
Method in brief: as §1

HCC-366 = system: HCC-366
Method in brief: as §1

NCI-H2085 = system: NCI-H2085
Method in brief: as §1

NCI-H2405 = system: NCI-H2405
Method in brief: as §1

LCLC-103H = system: LCLC-103H
Method in brief: as §1

NCI-H2347 = system: NCI-H2347
Method in brief: as §1

NCI-H2009 = system: NCI-H2009
Method in brief: as §1

NCI-H1355 = system: NCI-H1355
Method in brief: as §1

PC-14 = system: PC-14
Method in brief: as §1

NCI-H1793 = system: NCI-H1793
Method in brief: as §1

EPLC-272H = system: EPLC-272H
Method in brief: as §1

COR-L23 = system: COR-L23
Method in brief: as §1

## Cc1cn(-c2cc(NC(=O)c3ccc(C)c(Nc4nccc(-c5cccnc5)n4)c3)cc(C(F)(F)F)c2)cn1 [Nilotinib] + O=C(CCCCCCC(=O)Nc1ccccc1)NO [Vorinostat] (partner 1 µM)
NCI-H3122; first compound 0.001 µM
  relative viability: 0.85
NCI-H3122; first compound 0.003162 µM
  relative viability: 1.47
NCI-H3122; first compound 0.01 µM
  relative viability: 1.07
NCI-H3122; first compound 0.03162 µM
  relative viability: 0.89
NCI-H3122; first compound 0.1 µM
  relative viability: 0.851
HCC-827; first compound 0.001 µM
  relative viability: 0.835
HCC-827; first compound 0.003162 µM
  relative viability: 0.983
HCC-827; first compound 0.03162 µM
  relative viability: 0.857
HCC-827; first compound 0.1 µM
  relative viability: 0.822
NCI-H1734; first compound 0.001 µM
  relative viability: 0.761
NCI-H1734; first compound 0.003162 µM
  relative viability: 0.803
NCI-H1734; first compound 0.01 µM
  relative viability: 0.832
NCI-H1734; first compound 0.03162 µM
  relative viability: 0.626
NCI-H1734; first compound 0.1 µM
  relative viability: 0.371
NCI-H1944; first compound 0.001 µM
  relative viability: 0.558
NCI-H1944; first compound 0.003162 µM
  relative viability: 0.795
NCI-H1944; first compound 0.01 µM
  relative viability: 0.671
NCI-H1944; first compound 0.03162 µM
  relative viability: 0.481
NCI-H1944; first compound 0.1 µM
  relative viability: 0.457
HCC-15; first compound 0.001 µM
  relative viability: 0.791
HCC-15; first compound 0.003162 µM
  relative viability: 0.913
HCC-15; first compound 0.01 µM
  relative viability: 0.936
HCC-15; first compound 0.03162 µM
  relative viability: 0.616
HCC-15; first compound 0.1 µM
  relative viability: 0.761
NCI-H2023; first compound 0.001 µM
  relative viability: 0.469
NCI-H2023; first compound 0.003162 µM
  relative viability: 0.455
NCI-H2023; first compound 0.01 µM
  relative viability: 1.06
NCI-H2023; first compound 0.03162 µM
  relative viability: 0.41
NCI-H2023; first compound 0.1 µM
  relative viability: 0.174
ABC-1; first compound 0.001 µM
  relative viability: 1.07
ABC-1; first compound 0.003162 µM
  relative viability: 1.03
ABC-1; first compound 0.01 µM
  relative viability: 1.11
ABC-1; first compound 0.03162 µM
  relative viability: 1.1
ABC-1; first compound 0.1 µM
  relative viability: 0.754
NCI-H2228; first compound 0.001 µM
  relative viability: 0.659
NCI-H2228; first compound 0.003162 µM
  relative viability: 0.616
NCI-H2228; first compound 0.01 µM
  relative viability: 0.594
NCI-H2228; first compound 0.03162 µM
  relative viability: 0.501
NCI-H2228; first compound 0.1 µM
  relative viability: 0.588
HCC-44; first compound 0.001 µM
  relative viability: 1.07
HCC-44; first compound 0.003162 µM
  relative viability: 1.06
HCC-44; first compound 0.01 µM
  relative viability: 1.09
HCC-44; first compound 0.1 µM
  relative viability: 1.07
ChaGo-K-1; first compound 0.001 µM
  relative viability: 0.654
ChaGo-K-1; first compound 0.003162 µM
  relative viability: 0.979
ChaGo-K-1; first compound 0.01 µM
  relative viability: 0.804
ChaGo-K-1; first compound 0.03162 µM
  relative viability: 0.733
ChaGo-K-1; first compound 0.1 µM
  relative viability: 0.4
SW 1573; first compound 0.001 µM
  relative viability: 0.527
SW 1573; first compound 0.003162 µM
  relative viability: 0.849
SW 1573; first compound 0.01 µM
  relative viability: 0.977
SW 1573; first compound 0.03162 µM
  relative viability: 0.438
SW 1573; first compound 0.1 µM
  relative viability: 0.222
HCC-366; first compound 0.001 µM
  relative viability: 0.33
HCC-366; first compound 0.003162 µM
  relative viability: 0.361
HCC-366; first compound 0.01 µM
  relative viability: 0.364
HCC-366; first compound 0.03162 µM
  relative viability: 0.27
HCC-366; first compound 0.1 µM
  relative viability: 0.212
NCI-H2085; first compound 0.001 µM
  relative viability: 0.833
NCI-H2085; first compound 0.003162 µM
  relative viability: 0.776
NCI-H2085; first compound 0.01 µM
  relative viability: 0.784
NCI-H2085; first compound 0.03162 µM
  relative viability: 0.753
NCI-H2085; first compound 0.1 µM
  relative viability: 0.598
NCI-H2405; first compound 0.001 µM
  relative viability: 0.946
NCI-H2405; first compound 0.003162 µM
  relative viability: 0.927
NCI-H2405; first compound 0.03162 µM
  relative viability: 0.763
NCI-H2405; first compound 0.1 µM
  relative viability: 0.521
LCLC-103H; first compound 0.001 µM
  relative viability: 0.74
LCLC-103H; first compound 0.003162 µM
  relative viability: 0.823
LCLC-103H; first compound 0.01 µM
  relative viability: 0.858
LCLC-103H; first compound 0.03162 µM
  relative viability: 0.691
LCLC-103H; first compound 0.1 µM
  relative viability: 0.433
NCI-H2347; first compound 0.001 µM
  relative viability: 0.601
NCI-H2347; first compound 0.003162 µM
  relative viability: 0.516
NCI-H2347; first compound 0.01 µM
  relative viability: 0.712
NCI-H2347; first compound 0.03162 µM
  relative viability: 0.495
NCI-H2347; first compound 0.1 µM
  relative viability: 0.431
NCI-H2009; first compound 0.001 µM
  relative viability: 0.607
NCI-H2009; first compound 0.003162 µM
  relative viability: 0.755
NCI-H2009; first compound 0.01 µM
  relative viability: 0.743
NCI-H2009; first compound 0.03162 µM
  relative viability: 0.579
NCI-H2009; first compound 0.1 µM
  relative viability: 0.46
NCI-H1355; first compound 0.001 µM
  relative viability: 0.6
NCI-H1355; first compound 0.003162 µM
  relative viability: 0.695
NCI-H1355; first compound 0.01 µM
  relative viability: 0.67
NCI-H1355; first compound 0.03162 µM
  relative viability: 0.59
NCI-H1355; first compound 0.1 µM
  relative viability: 0.335
PC-14; first compound 0.001 µM
  relative viability: 0.594
PC-14; first compound 0.003162 µM
  relative viability: 0.378
PC-14; first compound 0.01 µM
  relative viability: 0.756
PC-14; first compound 0.03162 µM
  relative viability: 0.604
PC-14; first compound 0.1 µM
  relative viability: 0.156
NCI-H1793; first compound 0.001 µM
  relative viability: 0.64
NCI-H1793; first compound 0.003162 µM
  relative viability: 0.841
NCI-H1793; first compound 0.01 µM
  relative viability: 0.688
NCI-H1793; first compound 0.03162 µM
  relative viability: 0.386
NCI-H1793; first compound 0.1 µM
  relative viability: 0.257
EPLC-272H; first compound 0.001 µM
  relative viability: 0.376
EPLC-272H; first compound 0.003162 µM
  relative viability: 0.331
EPLC-272H; first compound 0.01 µM
  relative viability: 0.37
EPLC-272H; first compound 0.03162 µM
  relative viability: 0.407
EPLC-272H; first compound 0.1 µM
  relative viability: 0.579
COR-L23; first compound 0.001 µM
  relative viability: 0.317
COR-L23; first compound 0.003162 µM
  relative viability: 0.347
COR-L23; first compound 0.01 µM
  relative viability: 0.406
COR-L23; first compound 0.03162 µM
  relative viability: 0.373
COR-L23; first compound 0.1 µM
  relative viability: 0.392
